Assay results from BindingDB's records for doi:10.7270/Q2CN728N (Nmmlsc, 2008).
Counter-ions that a name gives are not always drawn.

Biological target: T1, Bcl-2-related protein A1 (Homo sapiens, UniProt Q16548)
T1 sequence (Q16548 whole entry): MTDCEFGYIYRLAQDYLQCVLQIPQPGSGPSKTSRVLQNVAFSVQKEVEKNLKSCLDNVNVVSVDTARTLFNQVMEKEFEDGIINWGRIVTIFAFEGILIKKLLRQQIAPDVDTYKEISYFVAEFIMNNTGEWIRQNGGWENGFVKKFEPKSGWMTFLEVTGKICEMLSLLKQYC
Assay: Bfl-1/Bim complex disruptors – biochemical, multiplexed, bead-based flow cytometry, dose response (AID 1320)
Conditions: inactive by the depositor's call; pH 7.4; 4 °C

| SMILES | EC50 |
| --- | --- |
| CN1CCN(C2=C(Cl)C(=O)C(c3cnc(N4CCCCC4)s3)=C(Cl)C2=O)CC1 | 0.01 µM |
| Cc1ccc(-c2ccc(/C=C/C(=O)c3ccccc3)o2)cc1 | 7.03 µM |
| CCN(CC)c1ccc(-c2nn3c(-c4ccccc4OC)nnc3s2)cc1 | 40.8 µM |
| CCN(CC)c1ccc(-c2nn3c(-c4n[nH]c5c4CCC5)nnc3s2)cc1 | 28.6 µM |
| CN(C)c1ncc(C2=C(Cl)C(=O)C(N3CCCC3)=C(Cl)C2=O)s1 | 0.04 µM |
| O=C(/C=C/c1ccc(-c2ccccc2[N+](=O)[O-])o1)c1ccccc1 | 2.61 µM |
| c1ccc(C2=Nc3cccc4cccc(c34)N2)cc1 | 26.2 µM |
| CCN(CC)c1ccc(NC(=O)c2ccccc2Br)cc1S(=O)(=O)Nc1ccccc1OC | 5.4 µM |
| Cc1ccc(/C=C2/NC(=O)N(Cc3ccc(Br)cc3)C2=O)o1 | 5.22 µM |
| CCOC(=O)c1c(NC(C)=O)sc2c(O)c(Br)cc(Br)c12 | 17.8 µM |
| COc1ccc(N2C(=O)C(=Cc3cccs3)NC2=S)cc1 | 3.86 µM |
| O=C1CSc2ccc(C(=O)Nc3cccc(S(=O)(=O)Nc4ccc(Br)cc4)c3)cc2N1 | 5.81 µM |
| CCOc1ccc(-n2cc(-c3ccc(OC)c(OC)c3)[nH]c2=S)cc1 | 0.68 µM |
| CCOC(=O)c1ccc(/N=c2/ssnc2Cl)cc1 | 37.5 µM |
| Cc1ccc(-c2nc3c(c(=O)[nH]c(=O)n3Cc3ccccc3)n2Cc2ccccc2)o1 | 8.43 µM |
| CC1N(C)c2cccc3cccc(c23)N1C [1,2,3-trimethyl-2,3-dihydro-1H-perimidine] | 2.46 µM |
| Cc1c(/N=C2\C=CC(=O)c3ccccc32)c(=O)n(-c2ccccc2)n1C [1,5-dimethyl-4-[(4-oxo-1-naphthalenylidene)amino]-2-phenyl-3-pyrazolone] | 53.5 µM |
| Cc1ccc(O)c(NC2=C(Cl)C(=O)N(Cc3ccccc3)C2=O)c1 [1-benzyl-3-chloro-4-(2-hydroxy-5-methylanilino)pyrrole-2,5-dione] | 13.8 µM |
| Cc1ccc(C(=O)/C=C/c2ccc(-c3ccc(C)cc3)o2)cc1 [1-p-Tolyl-3-(5-p-tolyl-furan-2-yl)-propenone] | 3.23 µM |
| COc1ccc(/C=C(/C(=O)c2cccs2)N2C=CC=CC2=C(C#N)C#N)cc1 [2-[1-[(Z)-1-(4-methoxyphenyl)-3-oxidanylidene-3-thiophen-2-yl-prop-1-en-2-yl]pyridin-2-ylidene]propanedinitrile] | 2.23 µM |
| Cc1ccc(-c2cc(-c3ccc(Cl)cc3)c(C#N)c(N)n2)o1 [2-azanyl-4-(4-chlorophenyl)-6-(5-methylfuran-2-yl)pyridine-3-carbonitrile] | 2.65 µM |
| Cc1ccc(/C=C/C(=O)c2ccccc(=O)c2O)c(C)c1 [3-[3-(2,4-dimethylphenyl)acryloyl]-2-hydroxy-2,4,6-cycloheptatrien-1-one] | 51.1 µM |
| N#Cc1cccc(/N=c2/ssnc2Cl)c1 [3-[(4-chloro-5-dithiazolylidene)amino]benzonitrile] | 14.5 µM |
| COc1ccc(N2C(=O)C(Cl)=C(Oc3cccc(OC)c3)C2=O)cc1 [3-chloro-4-(3-methoxyphenoxy)-1-(4-methoxyphenyl)-1H-pyrrole-2,5-dione] | 0.68 µM |
| CCOc1cc(S(=O)(=O)Nc2ccccn2)ccc1F [3-ethoxy-4-fluoro-N-(2-pyridinyl)benzenesulfonamide] | 44.5 µM |

Same assay, conditions: pH 7.4; 4 °C

| SMILES | EC50 |
| --- | --- |
| CN1CCc2cccc3c2[C@@H]1Cc1ccc(O)c(O)c1-3 | 15.1 µM |
| O=C(Nc1ccc2nc(-c3ccco3)c(-c3ccco3)nc2c1)N1CCCCCC1 | 0.92 µM |
| CCN1C(=O)/C(=C/C=C2\C=CN(CC)c3ccccc32)SC1=S | 3.6 µM |
| CCC(/C=C1\Sc2ccc(OC)cc2N1CCO)=C\c1sc2ccc(OC)cc2[n+]1CCO | 20.3 µM |
| N#Cc1cc(-c2ccccc2)nn1-c1ccccc1 | 2.02 µM |
| Cc1ccc(-c2cc(-c3ccc(F)cc3)c(C#N)c(N)n2)o1 | 5.2 µM |
| Cc1c(N=C2C(=O)N(c3ccccc3Cl)C(=O)C2Cl)c(=O)n(-c2ccccc2)n1C (stereo not drawn) | 6.04 µM |
| CCN=c1scc(C)n1N=Cc1ccc(O)c(O)c1O | 19.6 µM |
| Cc1cccc(N2C(=S)C(C#N)C(=O)NC2c2cccs2)c1 (stereo not drawn) | 18.3 µM |
| O=C1C(Cl)=C(N2CCN(c3ccccc3[N+](=O)[O-])CC2)C(=O)c2ccccc21 | 0.36 µM |
| c1ccc(-c2nc(N3CCOCC3)[s+]n2-c2ccccc2)cc1 | 0.05 µM |
| Cc1ccc(C)c(/C=C/C(=O)c2ccccc(=O)c2O)c1 | 8.74 µM |
| O=C(NC1=C(Nc2ccc(Cl)cc2)C(=O)c2ccccc2C1=O)c1ccccc1 | 2.91 µM |
| CCN(CC)S(=O)(=O)c1cccc(C(=O)NN=Cc2ccc(O)c(O)c2O)c1 | 6.41 µM |
| O=C(Nc1ccc2nc(-c3ccco3)c(-c3ccco3)nc2c1)N1CCN(c2ccccn2)CC1 | 5.94 µM |
| O=C(c1ccccc1)c1ccc2nc(-c3ccco3)c(-c3ccco3)nc2c1 | 9.94 µM |
| CCOc1ccccc1CNc1ccc(O)cc1 | 1.13 µM |
| CCN1/C(=C/c2ccc3cc(C)ccc3[n+]2CC)Sc2cc(C)c(C)cc21 | 16.9 µM |
| COc1ccc(-n2cc(-c3ccc(OC)c(OC)c3)[nH]c2=S)cc1 | 1.58 µM |
| O=c1[nH]c(O)c(Cc2ccc(-c3cc(Cl)ccc3[N+](=O)[O-])o2)c(=O)[nH]1 | 1.24 µM |
| O=C(NCCCO)Nc1ccc2nc(-c3ccco3)c(-c3ccco3)nc2c1 [1-[2,3-bis(2-furanyl)-6-quinoxalinyl]-3-(3-hydroxypropyl)urea] | 1.25 µM |
| O=C(NCc1ccccc1)c1ccc2nc(-c3ccco3)c(-c3ccco3)nc2c1 [2,3-bis(furan-2-yl)-N-(phenylmethyl)quinoxaline-6-carboxamide] | 3.06 µM |

| SMILES | EC50 |
| --- | --- |
| COc1ccc2nc(-c3ccco3)c(-c3ccco3)nc2c1 [2,3-di-2-furyl-6-methoxyquinoxaline] | 4.93 µM |
| O=C(NCc1ccccn1)c1ccc2nc(-c3ccco3)c(-c3ccco3)nc2c1 [2,3-di-2-furyl-N-(pyridin-2-ylmethyl)quinoxaline-6-carboxamide] | 3.66 µM |
| O=C(Nc1ccccc1)c1ccc2nc(-c3ccco3)c(-c3ccco3)nc2c1 [2,3-di-2-furyl-N-phenyl-6-quinoxalinecarboxamide] | 7.56 µM |
| Cc1cccc(NC2=NC(=O)C(=CC=Cc3ccco3)S2)c1C [2-(2,3-Dimethyl-phenylamino)-5-[(E)-3-furan-2-yl-prop-2-en-(Z)-ylidene]-thiazol-4-one] | 3.17 µM |
| c1coc(C2=Nc3cccc4cccc(c34)N2)c1 [2-(2-furanyl)-1H-perimidine] | 6.32 µM |
| Cc1cc(C)c(S(=O)(=O)N=C2C=C(SCC(=O)O)C(=O)c3ccccc32)cc1C [2-[1-oxidanylidene-4-(2,4,5-trimethylphenyl)sulfonylimino-naphthalen-2-yl]sulfanylethanoic acid] | 8.24 µM |
| COc1cc(CNc2ccc3[nH]c(=O)[nH]c3c2)cc(Br)c1OCC(=O)NC(C)(C)C [2-[2-bromo-6-methoxy-4-[[(2-oxo-1,3-dihydrobenzimidazol-5-yl)amino]methyl]phenoxy]-N-tert-butylacetamide] | 0.87 µM |
| Cc1ccc(/C=C/C2=Cc3c(sc(NC(=O)CSc4nnc(N)[nH]4)c3C#N)C(C)(C)C2)o1 [2-[(5-azanyl-1H-1,2,4-triazol-3-yl)sulfanyl]-N-[3-cyano-7,7-dimethyl-5-[(E)-2-(5-methylfuran-2-yl)ethenyl]-6H-1-benzothiophen-2-yl]ethanamide] | 4.19 µM |
| Cc1nnc(Sc2cc(NCCO)c([N+](=O)[O-])c3nonc23)s1 [2-[[7-[(5-methyl-1,3,4-thiadiazol-2-yl)thio]-4-nitro-2,1,3-benzoxadiazol-5-yl]amino]ethanol] | 0.52 µM |
| CCOC(=O)CSC1=NC(=O)/C(=C/c2ccc(OC)cc2)S1 [2-[[(5Z)-5-[(4-methoxyphenyl)methylidene]-4-oxo-2-thiazolyl]thio]acetic acid ethyl ester] | 1.12 µM |
| Cc1ccc(-c2cc(-c3ccc(C)o3)nc(N)c2C#N)cc1 [2-amino-6-(5-methylfuran-2-yl)-4-(4-methylphenyl)pyridine-3-carbonitrile] | 2.25 µM |
| Cc1cc(-c2cc(-c3ccc(Cl)cc3)nc(N)c2C#N)co1 [2-azanyl-6-(4-chlorophenyl)-4-(5-methylfuran-3-yl)pyridine-3-carbonitrile] | 3.86 µM |
| CCN(CC)c1ccc(NC2=C(Cl)C(=O)c3ccccc3C2=O)cc1 [2-chloro-3-{[4-(diethylamino)phenyl]amino}naphthoquinone] | 0.18 µM |
| CC(=O)OCCNc1cc(Sc2nc3ccccc3[nH]2)c2nonc2c1[N+](=O)[O-] [2-{[7-(1H-benzimidazol-2-ylthio)-4-nitro-2,1,3-benzoxadiazol-5-yl]amino}ethyl acetate] | 5.6 µM |
| O=C(/C=C/c1ccccc1Cl)c1ccccc(=O)c1O [3-[(E)-3-(2-chlorophenyl)prop-2-enoyl]-2-oxidanyl-cyclohepta-2,4,6-trien-1-one] | 9.01 µM |
| O=C(c1ccccc1)c1[nH]n(-c2ccccc2)c2c(O)n(-c3ccccc3)c(=O)c1-2 [3-benzoyl-1,5-diphenyl-3a,6a-dihydropyrrolo[3,4-c]pyrazole-4,6-dione] | 1.36 µM |
| COc1ccc(N2C(=O)C(=Nc3c(C)n(C)n(-c4ccccc4)c3=O)C(Cl)C2=O)cc1 (stereo not drawn) [3-chloranyl-4-[(1,5-dimethyl-3-oxidanylidene-2-phenyl-pyrazol-4-yl)amino]-1-(4-methoxyphenyl)pyrrole-2,5-dione] | 12 µM |
| Cc1c(N=C2C(=O)N(c3ccccc3)C(=O)C2Cl)c(=O)n(-c2ccccc2)n1C (stereo not drawn) [3-chloranyl-4-[(1,5-dimethyl-3-oxidanylidene-2-phenyl-pyrazol-4-yl)amino]-1-phenyl-pyrrole-2,5-dione] | 15.4 µM |
| Cc1cc(N)ccc1N1CCCC1 [3-methyl-4-(1-pyrrolidinyl)aniline;hydrochloride] | 7.93 µM |
| CNC(CC(=O)c1ccc([N+](=O)[O-])cc1)C(Cl)(Cl)Cl (stereo not drawn) [4,4,4-Trichloro-3-methylamino-1-(4-nitro-phenyl)-butan-1-one] | 0.47 µM |
| COc1cc(C2Nc3cccc4cccc(c34)N2)cc(OC)c1O [4-(2,3-dihydro-1H-perimidin-2-yl)-2,6-dimethoxyphenol] | 1.73 µM |
